Measured values taken from paper PMC12470260, “Functional Divergence of Two General Odorant-Binding Proteins to Sex Pheromones and Host Plant Volatiles in Adoxophyes orana (Lepidoptera: Tortricidae)” (Insects, 2025).
Values joined by “and” are separate entries in the source; they are usually repeats but may differ in a detail not shown here. Equal values may be shown once.

Legend:
AoraGOBP2 = test: Fluorescence competitive binding assay (1-NPN probe) with rAoraGOBP2; design: species or system Adoxophyes orana; details: for Ki: competitive displacement of 1-NPN, 20 mM Tris-HCl pH 7.4, mean ± S.E.M., read-out: Ki (μM) GOBP2
Method: (§1) The fluorescent competitive binding assays were conducted using an F-2700 spectrophotofluorometer (Hitachi, Tokyo, Japan) to evaluate the binding affinities of AoraGOBP1 and AoraGOBP2 to sex pheromones, and HPVs. […] With the increase of 1 − NPN concentration, the change in fluorescence intensity decreased and eventually stabilized, and the data were recorded. Binding dissociation constant K1−NPN (Kd) of 1 − NPN to rAoraGOBPs were determined. Then, 2 mL protein solution containing 2 μM rAoraGOBPs was titrated with 1 μM of each ligand to a final concentration of 18 µM. The fluorescence intensity was measured and recorded after a 2 min reaction. The Ki for competitive binding of each ligand to rAoraGOBPs using the formula Ki = [IC50]/(1 + [1 − NPN]/K1−NPN), where IC50 is the ligand concentration corresponding to 50% displacement of 1 − NPN. Each assay was replicated three times biologically. The Kd and Ki are presented as mean ± S.E.M.

AoraGOBP1 = test: Fluorescence competitive binding assay (1-NPN probe) with rAoraGOBP1; design: species or system Adoxophyes orana; details: for Ki: competitive displacement of 1-NPN, 20 mM Tris-HCl pH 7.4, mean ± S.E.M., read-out: Ki (μM) GOBP1; for Binding affinity to AoraGOBP1 (in words): fluorescence competitive binding
Method: as §1

[1] = fluorescent probe titration, 2 μM protein, pH 7.4

| Compound | Ki (AoraGOBP2; 2 μM protein) | Ki (AoraGOBP1; 2 μM protein) | other results |
| --- | --- | --- | --- |
| C=CC(O)CC (stereo not shown) [1-Penten-3-ol] | – | 10.2 ± 0.14 µM | – |
| CC(C)=CCCC(C)=CC=O (mixture of isomers) [Citral] | – | 11.7 ± 0.44 µM | – |
| c1ccc(Nc2cccc3ccccc23)cc1 [1 − NPN, reference compound] | – | – | Kd (AoraGOBP1; [1]): 18.4 µM; Kd (AoraGOBP2; [1]): 1650 nM |
| CC/C=C\CCOC(=O)CC(C)C [(Z)-3-Hexen-1-yl 3-methylbutanoate] | – | 6.21 ± 0.18 µM | – |
| CCCCCCCCCC=O [Decanal] | – | 0.78 ± 0.15 µM | – |
| CCCCCCCCCCCCO [12:OH] | 1.74 ± 0.03 µM | – | – |
| CCCCOC(=O)c1ccccc1C(=O)OCCCC [Dibutyl phthalate] | 5.33 ± 0.04 µM | 10.27 ± 0.07 µM | – |
| CCOC(=O)C(C)CC (stereo not shown) [Ethyl 2-methylbutanoate] | – | 11.78 ± 0.08 µM | – |

Further lines, with some results ahead:

| Ki (AoraGOBP2; 2 μM protein) | Ki (AoraGOBP1; 2 μM protein) | Compound | other results |
| --- | --- | --- | --- |
| 1.13 ± 0.02 µM | – | CC(C)=CCC/C(C)=C/CC/C(C)=C/CO [Farnesol] | – |
| 6.96 ± 0.32 µM | – | Farnesene | – |
| – | 4.41 ± 0.2 µM | COC(=O)c1ccccc1O [Methyl salicylate] | – |
| – | 5.08 ± 0.13 µM | CCCCC/C=C\C=C\C(=O)OCC [Pear ester] | – |
| 1.49 ± 0.01 µM | – | CCCC/C=C\CCCCCCCCO [Z9-14:OH, (Z)-9-tetradecen-1-ol] | Binding affinity to AoraGOBP1 (in words) (AoraGOBP1): did not |
| 6.46 ± 0.18 µM | – | CCCC/C=C\CCCCCCCCOC(C)=O [Z9-14:Ac, (Z)-9-tetradecenyl acetate] | Binding affinity to AoraGOBP1 (in words) (AoraGOBP1): did not; Binding affinity to AoraGOBP2 (in words) (AoraGOBP2; fluorescence competitive binding): moderate binding affinity |
| – | 11.9 ± 0.41 µM | CC(C)C=O [Isobutyraldehyde] | – |
| 1.21 µM and 1.24 µM | – | CCCC/C=C\CCCCCCCCO [Z11-14:OH, (Z)-9-tetradecen-1-ol] | Binding affinity to AoraGOBP1 (in words) (AoraGOBP1): did not |
